Results: US20110166121A1 (LG LIFE SCIENCES LTD., priority 2008, published 2011)
“And” between values parts separate entries of the source, which are not always exact repeats. Identical values can stand only once.

What was measured:
[1] = test system: Human platelet aggregation caused by ADP; assay: Inhibition of ADP-induced platelet aggregation (Mimic-human PRP); format: cell-based; details: 20 μM ADP, human platelet concentrate diluted with PPP, absorption at 595 nm
Summary of the method: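 Human PRP diluted with PPP to 3–4×10^8 platelets/mL was preincubated 20 min at room temperature with compound (0.01–30 μM, DMSO), then stimulated with 20 μM ADP. Aggregation read as A595 increase at 3 min versus 0 and 20 μM ADP controls; Ki from sigmoidal non-linear regression.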

[2] = target: T1, Human P2Y12 receptor (Homo sapiens, UniProt Q9H244); assay: Human P2Y12 receptor cell membrane binding assay with [3H] 2-Mes-ADP; details: 1 nM [3H] 2-Mes-ADP, membranes of HEK cells expressing P2Y12 receptor; read-out: Binding activity (IC50)
T1 construct: expressed in transfected cells; host or cells: HEK cells
Summary of the method: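 Membranes from HEK cells expressing human P2Y12 were incubated with compound and 1 nM [3H]2-MeS-ADP for 1 h at room temperature. Bound radioactivity was collected by GF/B filtration.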

T1 sequence (Q9H244 whole entry): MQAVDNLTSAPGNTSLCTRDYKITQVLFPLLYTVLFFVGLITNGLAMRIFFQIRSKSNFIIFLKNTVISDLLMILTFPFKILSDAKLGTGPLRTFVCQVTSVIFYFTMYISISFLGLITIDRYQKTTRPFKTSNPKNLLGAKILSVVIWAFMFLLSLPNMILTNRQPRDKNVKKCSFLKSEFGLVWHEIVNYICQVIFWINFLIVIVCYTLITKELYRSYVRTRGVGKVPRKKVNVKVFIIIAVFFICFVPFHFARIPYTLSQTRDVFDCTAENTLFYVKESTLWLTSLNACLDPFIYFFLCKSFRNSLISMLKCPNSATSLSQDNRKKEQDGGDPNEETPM

Row | Structure (SMILES) | Ki [1] | IC50 [2] [µM]
1 | CCCc1cc2c(N3CCn4c(nnc4C(F)(F)F)C3)nc(N3CCC[C@H]3C(=O)O)nc2s1 [Example 1-50, (S)-1-[6-Propyl-4-(3-trifluoromethyl-5,6-dihydro-8H-[1,2,4]triazolo[4,3-a]pyrazin-7-yl)-thieno[2,3-d]pyrimidin-2-yl]-pyrrolidine-2-carboxylic acid] | 0.04 µM | 0.11
2 | CC(C)Cc1cc2c(N3CCn4c(nnc4C(F)(F)F)C3)nc(N3CC[C@@H](O)C3)nc2s1 [Example 2-18, (R)-1-[6-Isobutyl-4-(3-trifluoromethyl-5,6-dihydro-8H-[1,2,4]triazolo[4,3-a]pyrazin-7-yl)-thieno[2,3-d]pyrimidin-2-yl]-pyrrolidin-3-ol] | 0.31 µM | 0.33
3 | CCc1cc2c(N3CCn4c(nnc4C(F)(F)F)C3)nc(CO)nc2s1 [Example 4-18, [6-Ethyl-4-(3-trifluoromethyl-5,6-dihydro-8H-[1,2,4]triazolo[4,3-a]pyrazin-7-yl)thieno[2,3-d]pyrimidin-2-yl]methanol] | 1.6 µM | 1.53
4 | CCCc1cc2c(N3CCn4c(nnc4C(F)(F)F)C3)nc(-c3nnc(CCO)o3)nc2s1 [Example 4-38, 2-{5-[6-Propyl-4-(3-trifluoromethyl-5,6-dihydro-8H-[1,2,4]triazolo[4,3-a]pyrazin-7-yl)thieno[2,3-d]pyrimidin-2-yl]-[1,3,4]oxadiazol-2-yl}ethanol] | 0.25 µM | 0.32
5 | CCCc1cc2c(N3CCn4c(C)nnc4C3)nc(OCCCO)nc2s1 [Example 6-17, 3-[4-(3-Methyl-5,6-dihydro-8H-[1,2,4]triazolo[4,3-a]pyrazin-7-yl)-6-propyl-thieno[2,3-d]pyrimidin-2-yloxy]-propan-1-ol] | 0.4 µM | 0.75
6 | CCCc1cc2c(N3CCn4c(nnc4C(F)(F)F)C3)nc(CC(N)=S)nc2s1 [Example 4-56, 2-[6-Propyl-4-(3-trifluoromethyl-5,6-dihydro-8H-[1,2,4]triazolo[4,3-a]pyrazin-7-yl)-thieno[2,3-d]pyrimidin-2-yl]-thioacetamide] | 0.0064 µM | 0.17
7 | CCCc1cc2c(N3CCn4c(nnc4C(F)(F)F)C3)nc(Oc3ccc(CC(=O)OC)cc3)nc2s1 [Example 3-39, {4-[6-Propyl-4-(3-trifluoromethyl-5,6-dihydro-8H-[1,2,4]triazolo[4,3-a]pyrazin-7-yl)-thieno[2,3-d]pyrimidin-2-yloxy]-phenyl}-acetic acid methyl ester] | 2.4 µM | 0.3
8 | CCCc1cc2c(N3CCn4c(nnc4C(F)(F)F)C3)nc(N3CCN(CCO)CC3)nc2s1 [Example 1-5, 2-{4-[6-Propyl-4-(3-trifluoromethyl-5,6-dihydro-8H-[1,2,4]triazolo[4,3-a]pyrazin-7-yl)-thieno[2,3-d]pyrimidin-2-yl]-piperazin-1-yl}-ethanol] | 0.16 µM and 0.21 µM | 0.096
9 | CCCc1cc2c(N3CCn4c(nnc4C(F)(F)F)C3)nc(COc3ccccc3C(=O)OC)nc2s1 [Example 4-24, 2-[6-Propyl-4-(3-trifluoromethyl-5,6-dihydro-8H-[1,2,4]triazolo[4,3-a]pyrazin-7-yl)thieno[2,3-d]pyrimidin-2-ylmethoxy]benzoic acid methyl ester] | 8.1 µM | 0.7
10 | CCCc1cc2c(N3CCn4c(nnc4C(F)(F)F)C3)nc(OCc3cccnc3)nc2s1 [Example 3-24, 7-[6-Propyl-2-(pyridin-3-ylmethoxy)-thieno[2,3-d]pyrimidin-4-yl]-3-trifluoromethyl-5,6,7,8-tetrahydro-[1,2,4]triazolo[4,3-a]pyrazine] | 1.48 µM | 0.16
11 | CCCc1cc2c(N3CCn4c(nnc4C(F)(F)F)C3)nc(-c3nc(CC)no3)nc2s1 [Example 4-27, 7-[2-(3-Ethyl-[1,2,4]oxadiazol-5-yl)-6-propyl-thieno[2,3-d]pyrimidin-4-yl]-3-trifluoromethyl-5,6,7,8-tetrahydro-[1,2,4]triazolo[4,3-a]pyrazine] | 1.5 µM | 0.13
12 | CCCc1cc2c(N3CCn4c(nnc4C(F)(F)F)C3)nc(N3CCC(=O)C3)nc2s1 [Example 1-18, 1-[6-Propyl-4-(3-trifluoromethyl-5,6-dihydro-8H-[1,2,4]triazolo[4,3-a]pyrazin-7-yl)-thieno[2,3-d]pyrimidin-2-yl]-pyrrolidin-3-one] | 0.034 µM | 0.054
13 | CCCc1cc2c(N3CCn4c(nnc4C(F)(F)F)C3)nc(N3CCNc4ncccc43)nc2s1 [Example 1-134, 1-[6-Propyl-4-(3-trifluoromethyl-5,6-dihydro-8H-[1,2,4]triazolo[4,3-a]pyrazin-7-yl)thieno[2,3-d]pyrimidin-2-yl]-1,2,3,4-tetrahydro-pyrido[2,3-b]pyrazine] | 0.869 µM | 1
14 | CCCc1cc2c(N3CCn4c(nnc4C(F)(F)F)C3)nc(N3CCOCC3)nc2s1 [Example 1-15, 7-(2-Morpholin-4-yl-6-propyl-thieno[2,3-d]pyrimidin-4-yl)-3-trifluoromethyl-5,6,7,8-tetrahydro-[1,2,4]triazolo[4,3-a]pyrazine] | 0.095 µM | 0.062
15 | CC(C)Cc1cc2c(N3CCn4c(nnc4C(F)(F)F)C3)nc(N3CCNC(=O)C3)nc2s1 [Example 2-17, 4-[6-Isobutyl-4-(3-trifluoromethyl-5,6-dihydro-8H-[1,2,4]triazolo[4,3-a]pyrazin-7-yl)-thieno[2,3-d]pyrimidin-2-yl]-piperazin-2-one] | 0.44 µM | 0.367
16 | CCCc1cc2c(N3CCn4c(nnc4C(F)(F)F)C3)nc(Oc3ccc(C=O)cc3)nc2s1 [Example 3-47, 4-[6-Propyl-4-(3-trifluoromethyl-5,6-dihydro-8H-[1,2,4]triazolo[4,3-a]pyrazin-7-yl)-thieno[2,3-d]pyrimidin-2-yloxy]-benzaldehyde] | > 4 µM | 0.375
17 | CCCc1cc2c(N3CCn4c(nnc4C(F)(F)F)C3)nc(OCCNC(=O)c3ccccn3)nc2s1 [Example 3-70, Pyridine-2-carboxylic acid {2-[6-propyl-4-(3-trifluoromethyl-5,6-dihydro-8H-[1,2,4]triazolo[4,3-a]pyrazin-7-yl)-thieno[2,3-d]pyrimidin-2-yloxy]-ethyl}-amide] | 0.007 µM | 0.017
18 | CCCc1cc2c(N3CCn4c(nnc4C(F)(F)F)C3)nc(-c3nc(CO)cs3)nc2s1 [Example 4-50, {2-[6-Propyl-4-(3-trifluoromethyl-5,6-dihydro-8H-[1,2,4]triazolo[4,3-a]pyrazin-7-yl)thieno[2,3-d]pyrimidin-2-yl]thiazol-4-yl}methanol] | 0.034 µM | 0.057
19 | CCCc1cc2c(N3CCn4c(nnc4C(F)(F)F)C3)nc(N3CC[C@H](NC(=O)Cc4c[nH]cn4)C3)nc2s1 [Example 1-120, 2-(1H-Imidazol-4-yl)-N-{(S)-1-[6-propyl-4-(3-trifluoromethyl-5,6-dihydro-8H-[1,2,4]triazolo[4,3-a]pyrazin-7-yl)-thieno[2,3-d]pyrimidin-2-yl]-pyrrolidin-3-yl}-acetamide] | 0.016 µM | 0.038
20 | CCCc1cc2c(N3CCn4c(nnc4C(F)(F)F)C3)nc(OCC(O)CO)nc2s1 (stereo not shown) [Example 3-1, 3-[6-Propyl-4-(3-trifluoromethyl-5,6-dihydro-8H-[1,2,4]triazolo[4,3-a]pyrazin-7-yl)-thieno[2,3-d]pyrimidin-2-yloxy]-propane-1,2-diol] | 0.031 µM | 0.14
